Measurements as given in PubChem BioAssay AID1963848 (Molecular Pharmacology Branch, DTP, NCI, 2024).

Test system: 379773-124-R-J2-PDC spheroid viability
Assay: Anticancer human tumor 379773-124-R-J2-PDC patient-derived endometrial carcinoma cell line growth inhibition [POLQ]
Details: spheroids with HUVEC and MSC; for IC50: curve of first compound; for viability, T/C: stronger effect = lower value; active means viability on the fitted dose curve at most 10% of control; inactive means the rest
Summary of the method: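 Complex spheroid viability model combining PDC tumour cells with endothelial (HUVEC) and MSC stromal cells. Novobiocin, ART-558 or RP6685 were tested singly and in combination with standard and investigational anticancer drugs. Each was titrated in half-log steps from near clinical Cmax, or from 10 microM where Cmax was unknown.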
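Further: spheroids exposed to drugs for seven days before readout.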
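Wherever viability, T/C is given: percent viability relative to DMSO vehicle control taken as 100%.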

CCc1cc2c(N3CCc4c(cc(Cn5ccnc5)cc4-c4cn(C)nc4C(F)(F)F)C3=O)cc(C)nc2c(OC)n1 + Nc1ccc(C#CCN(C(=O)Cc2ncc(C(F)(F)F)cc2C(F)(F)F)c2ccc(F)cc2)nn1
inactive: viability, T/C (second compound 0.0316 µM, first compound 0.0316 µM) 75.7% | viability, T/C (second compound 0.0316 µM, first compound 0.1 µM) 78.4% | viability, T/C (second compound 0.0316 µM, first compound 0.316 µM) 61.9% | viability, T/C (second compound 0.0316 µM, first compound 1 µM) 60.9% | viability, T/C (second compound 0.0316 µM, first compound 3.16 µM) 64.3% | viability, T/C (second compound 0.0316 µM, first compound 10 µM) 48.9% | viability, T/C (second compound 0.1 µM, first compound 0.0316 µM) 66.9% | viability, T/C (second compound 0.1 µM, first compound 0.1 µM) 81.1% | viability, T/C (second compound 0.1 µM, first compound 0.316 µM) 65.3% | viability, T/C (second compound 0.1 µM, first compound 1 µM) 62.2% | viability, T/C (second compound 0.1 µM, first compound 3.16 µM) 55.7% | viability, T/C (second compound 0.1 µM, first compound 10 µM) 46.4% | viability, T/C (second compound 0.316 µM, first compound 0.0316 µM) 74.3% | viability, T/C (second compound 0.316 µM, first compound 0.1 µM) 73% | viability, T/C (second compound 0.316 µM, first compound 0.316 µM) 66.6% | viability, T/C (second compound 0.316 µM, first compound 1 µM) 62.3% | viability, T/C (second compound 0.316 µM, first compound 3.16 µM) 52.1% | viability, T/C (second compound 0.316 µM, first compound 10 µM) 44.7% | viability, T/C (second compound 1 µM, first compound 0.0316 µM) 77.5% | viability, T/C (second compound 1 µM, first compound 0.1 µM) 68.8% | viability, T/C (second compound 1 µM, first compound 0.316 µM) 66.2% | viability, T/C (second compound 1 µM, first compound 1 µM) 61.6% | viability, T/C (second compound 1 µM, first compound 3.16 µM) 52.4% | viability, T/C (second compound 1 µM, first compound 10 µM) 50.6% | viability, T/C (second compound 3.16 µM, first compound 0.0316 µM) 82.2% | viability, T/C (second compound 3.16 µM, first compound 0.1 µM) 67.6% | viability, T/C (second compound 3.16 µM, first compound 0.316 µM) 67.2% | viability, T/C (second compound 3.16 µM, first compound 1 µM) 64.7% | viability, T/C (second compound 3.16 µM, first compound 3.16 µM) 57.9% | viability, T/C (second compound 3.16 µM, first compound 10 µM) 51.8% | viability, T/C (second compound 10 µM, first compound 0.0316 µM) 74.5% | viability, T/C (second compound 10 µM, first compound 0.1 µM) 68.2% | viability, T/C (second compound 10 µM, first compound 0.316 µM) 70.7% | viability, T/C (second compound 10 µM, first compound 1 µM) 56% | viability, T/C (second compound 10 µM, first compound 3.16 µM) 56.4% | viability, T/C (second compound 10 µM, first compound 10 µM) 51.8%
4.84 µM: IC50 (second compound 0.316 µM)
6.39 µM: IC50 (second compound 0.1 µM)
> 10 µM: IC50 (second compound 0.0316 µM) | IC50 (second compound 3.16 µM) | IC50 (second compound 10 µM)
9.88 µM: IC50 (second compound 1 µM)
